Reference: PubChem BioAssay (NCI)
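48-hour exposure; five concentrations; linearly interpolated endpoints. GI50 marks 50% less growth. TGI: total growth inhibition.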

Tests used:
Assay in all cases: NCI anticancer screen, dose series, 48 h
[1] = tested on: BT-549 breast
[2] = tested on: CAKI-1 renal
[3] = tested on: HOP-92 NSCLC
[4] = tested on: MALME-3M melanoma
[5] = tested on: MDA-N
[6] = tested on: NCI/ADR-RES ovarian
[7] = tested on: SNB-75 CNS
[8] = tested on: UACC-62 melanoma
[9] = tested on: UO-31 renal
[10] = tested on: SK-OV-3 ovarian

| Compound | TGI [1] [µM] | TGI [2] [µM] | TGI [3] [µM] | TGI [4] [µM] | TGI [5] [µM] | TGI [6] [µM] | TGI [7] [µM] | TGI [8] [µM] | TGI [9] [µM] | TGI [10] [µM] | GI50 [1] [µM] | GI50 [2] [µM] | GI50 [3] [µM] | GI50 [4] [µM] | GI50 [6] [µM] | GI50 [10] [µM] | GI50 [7] [µM] | GI50 [8] [µM] | GI50 [9] [µM] |
| --- | --- | --- | --- | --- | --- | --- | --- | --- | --- | --- | --- | --- | --- | --- | --- | --- | --- | --- | --- |
| CC(C)OC1OC(CO)C(O)CC1n1cc(F)c(=O)[nH]c1=O (centres undefined) | > 100 | > 100 | > 100 | > 100 | > 100 | > 100 | > 100 | > 100 | > 100 |  |  |  |  |  |  |  |  |  |  |
| CSc1ccc(/C=C2\N=C(c3ccccc3)N(/N=C/c3cc4cc(C)ccc4nc3Cl)C2=O)cc1 | 56.5 | 45.3 | 40.1 |  | 34.5 | 78.1 | 49.2 | 33.7 | 33.4 | 66.1 |  |  |  |  |  |  |  |  |  |
| O=C(/C=C/c1cccs1)c1ccccc1Cl |  | 23 | 97.5 | 26.7 | 33.9 | 44.9 | 28.9 | 27.5 | 17.2 | > 77.9 |  |  |  |  |  |  |  |  |  |
| Cc1[nH]c(=O)[nH]c(=S)c1C(=O)Nc1cccc2cc3ccccc3cc12 | > 100 | > 100 | > 100 | > 100 |  | > 100 | > 100 | > 100 | > 100 | > 100 |  |  |  |  |  |  |  |  |  |
| CC(C)(C)C1CC[C@H](O)[C@H]([C@H](O)CC2CC(=O)N(c3ccccc3)C(=O)C2)C1 (some centres undefined) | > 100 | > 100 | > 100 | > 100 | > 100 | > 100 | > 100 | > 100 | > 100 |  |  |  |  |  |  |  |  |  |  |
| CC(=O)/C(=C\c1ccc(Cl)c(Cl)c1)C(=O)C(C)CN(C)C (centres undefined) | 8.92 | 17.1 | 9.55 | 21.9 | 16.2 | 72.5 |  |  | 14.5 | 37.1 |  |  |  |  |  |  |  |  |  |
| CC(C)(C)OC(=O)n1cc(C2CN(O)C(=O)C23CCC(=O)N3Cc2ccccc2)c2ccccc21 (centres undefined) |  | > 100 | 50.8 | > 100 | > 100 | > 100 | > 100 | > 100 | > 100 | 66.5 |  |  |  |  |  |  |  |  |  |
| CC(=O)Nc1cc(Nc2cc(=O)[nH]c(=O)[nH]2)ccc1C | > 100 |  | > 100 | > 100 | > 100 | > 100 | > 100 |  | > 100 |  |  |  |  |  |  |  |  |  |  |
| CC(=O)O[C@H]1CC[C@@]2(C)[C@H](CC[C@@H]3[C@@H]2CC[C@]2(C)[C@@H](c4ccc(=O)oc4)C[C@H]4O[C@]342)C1 |  | 1.31 | 3.67 | 2.61 |  | 3.82 | 3.45 | 3.46 | 3.18 | 5.68 |  |  |  |  |  |  |  |  |  |
| CN1C(=O)C(O)CC1c1cccc(C(F)(F)F)c1 (centres undefined) | > 100 | > 100 | > 100 | > 100 |  | > 100 | > 100 | > 100 | > 100 | > 100 |  |  |  |  |  |  |  |  |  |
| O=C(CC1Sc2ccccc2NC1=O)Nc1ccc(Cl)cc1 (centres undefined) |  | > 100 | 67.2 | > 100 |  |  | > 100 | > 100 | > 100 | > 100 |  |  |  |  |  |  |  |  |  |
| O=[N+]([O-])c1cccnc1-n1cnc2ccccc21 | > 100 | > 100 | > 100 | > 100 |  | > 100 | > 100 | > 100 |  | > 100 |  |  |  |  |  |  |  |  |  |
| COC(=O)[C@@H]1CN(C(=O)c2ccccc2)C(=O)N1C(=O)OCc1ccccc1 |  | > 100 | > 100 | > 100 | > 100 | > 100 | > 100 | > 100 | > 100 | > 100 |  |  |  |  |  |  |  |  |  |
| CC1CC/C(=C\c2ccc(Cl)cc2)c2nc(N)c(C#N)c(-c3ccc(Cl)cc3)c21 (centres undefined) | > 100 | 45.5 |  | 62 | > 100 | > 100 | > 100 | > 100 | > 100 | > 100 |  |  |  |  |  |  |  |  |  |
| CC(=O)CC(=O)CCC(=O)O |  | > 100 |  | > 100 |  |  |  |  | > 100 | > 100 |  |  |  |  |  |  |  |  |  |
| CCOC(=O)c1cn(C)c(=S)n2c1nc1ccccc12 | > 100 | > 100 | > 100 |  |  | > 100 | > 100 | > 100 | > 100 |  |  |  |  |  |  |  |  |  |  |
| Cc1ccc(S(=O)(=O)N(CC(O)COc2ccccc2)c2ccc(F)cc2F)cc1 (centres undefined) |  | 29.9 | 12.4 | 36 | 29.8 | 33.3 | 29.4 | 31.9 | 26.9 | 41.6 |  |  |  |  |  |  |  |  |  |
| O=C(Nc1cccc(-n2cc(-c3ccncc3)c(-c3ccc(O)c(Cl)c3)n2)c1)c1cccc(C(F)(F)F)c1 | > 100 | > 100 | 4.11 | > 100 |  | > 100 | > 100 | > 100 | > 100 | > 100 | 3.34 | 2.83 | 0.434 | 5.59 | 4.09 | 99.1 | 2.07 | 6.52 | 4.29 |
| COC(=O)CCCC(=O)NC1=C(NCc2ccccc2)C(=O)c2ccccc2C1=O | 93.8 | > 100 |  | 37.7 | > 100 | > 100 | > 100 | > 100 | > 100 | > 100 |  |  |  |  |  |  |  |  |  |
| CCC(CC(C)C)Nc1ccc(NC(CC)CC(C)C)cc1 (centres undefined) |  | > 100 | 24.7 | 34.3 |  | 39.8 | 38.2 | 24.3 | 29.3 |  |  | 40.2 | 10.7 | 14.7 | 17.6 |  | 15.4 | 10.6 | 14.8 |
| C=CC1CN2CCC1CC2C(O)c1ccnc2ccccc12 (centres undefined) | > 100 | > 100 |  | > 100 |  | > 100 | > 100 | > 100 | > 100 | > 100 |  |  |  | 0.0846 |  |  | > 100 |  | 36.8 |
| O=C1C=CC(=O)c2c(Cl)ccc(O)c21 |  | 16.1 | 6.96 | 32.7 |  | 42.1 | > 63.4 | 30.9 | > 100 | > 100 |  |  |  |  |  |  |  |  |  |
